The results in this text go back to paper PMC8305076, “Comprehensive Evaluation of Biological Effects of Pentathiepins on Various Human Cancer Cell Lines and Insights into Their Mode of Action” (International Journal of Molecular Sciences, 2021).

Assay type in all cases: cell-based, human
For experiment [1], the system named is YAPC. The experiment is described as follows: cell cycle analysis (PI staining). The following applies: IC90, 24 and 48 h (Figure 19c). The protocol:
(§1) The potent cytotoxicity and the potential to inhibit the proliferation of cancer cells accompanied by DNA damage effects raised the question as to whether cell cycle progression might be affected as a result of treatment with pentathiepins.
(§2) Cells were harvested by trypsinization, collected in 1.5 mL tubes, and washed twice with PBS by centrifuging for 5 min at 500× g and discarding the supernatant after every step. For fixation, 500 µL of ice-cold ethanol (70%) was added dropwise under vortexing with a subsequent incubation on ice for 30 min. Then, the cells were centrifuged for 10 min at 4000 rpm and 4 °C, the supernatant was removed, and the cells were resuspended in 500 µL of PBS containing 25 µg/mL of PI and 100 µg/mL of RNase. The staining solution was incubated for 30 min, and the cell suspension was measured at λEx/Em = 488/655–730 nm using a MACSquant Analyzer 10 (Miltenyi Biotec, Teterow, Germany).

In a further experiment the test system is HAP-1.KO.GPx1. The experiment can be described thus: annexin V-FITC/PI apoptosis assay. The settings on record: for early apoptotic cells: pentathiepins IC90, doxorubicin 0.5 µM, 24 h. The protocol: (§3) As reported in our earlier publication, a representative pentathiepin was capable of inducing apoptosis in cancer cell lines. Here, we tested compounds 1–6 for their ability to trigger this particular modality of cell death in a subset of four cell lines: HAP-1, HAP-1.KO.GPx1, A2780, and Siso. A flow cytometric assay was performed, allowing us to discriminate between viable, early, and late apoptotic cells (representative dot plots can be found in Figure S47). FITC-labeled annexin V was used to assess the externalization of phosphatidyl serine as a hallmark of early apoptosis induction. The addition of propidium iodide (PI) enabled the detection of late apoptotic cells as it only permeates porous cell membranes and exerts fluorescence once bound to double-stranded DNA.
(§4) The annexin V-FITC/PI assay, which discriminates between viable, early, and late apoptotic cells within a sample population, was performed according to the manufacturer’s instructions (Miltenyi Biotec, Teterow, Germany). Briefly, 125,000 cells were seeded in 2 mL per well of a 6-well plate, allowed to adhere overnight, and subsequently treated with the respective pentathiepin (IC90, see Table S4) diluted in 3 mL of medium. After incubation periods of 6, 24, or 48 h, the cells were harvested, washed with the provided binding buffer, and stained with the annexin V-FITC reagent for 20 min at room temperature (RT) in the dark. After another washing step, the pellet was resuspended, and PI was added immediately before flow cytometric measurement at λEx/Em = 488/525 ± 50 nm for FITC and λEx/Em = 488/655–730 nm for PI with the MACSquant Analyzer 10 (Miltenyi Biotec, Teterow, Germany).

The test system of a further experiment is HAP-1. The experiment is described as follows: annexin V-FITC/PI apoptosis assay. The following applies: IC90, 24 h. Here is the method: as §3, §4
The subject of the next experiment is Siso. The experiment can be described thus: annexin V-FITC/PI apoptosis assay. The settings on record: IC90, 24 h. Here is the method:
as §3, §4

A further experiment relates to PATU-8902. The experiment is described as follows: cell cycle analysis (PI staining). The following applies: IC90, 24 and 48 h (Figure 19b). Here is the method: as §1, §2
The subject of experiment [2] is YAPC. The experiment can be described thus: DCFDA flow cytometric ROS assay, acute. The settings on record: 25 µM, 15 min. The protocol:
According to the hypothesized mechanism of action (see Figure 3), pentathiepins can create oxidative stress via generation of reactive sulfur precursors. We have previously reported that a representative pentathiepin can increase the intracellular levels of ROS in two cancer cell lines. This effect was thus further evaluated with the new compounds in seven cell lines (Figure 8). The cells were incubated for 15 min with 25.0 µM pentathiepin and subsequently analyzed by using the intracellular ROS sensor 2′,7′-dichlorodihydrofluorescein diacetate (DCFDA) by flow cytometry.
In order to quantify intracellular ROS, we performed a flow cytometric assay based on the ROS-sensor 2′,7′-dichlorofluorescein diacetate (DCFDA). For acute effects of pentathiepins on intracellular ROS levels, the cells were stained with DCFDA first and subsequently incubated with 25 µM of compound for 10 min. […] Per condition, 250,000 cells were seeded in 2 mL of medium per well of a 6-well plate and allowed to adhere overnight. For measurement of acute ROS, the cells were stained with 1 mL of a 20 µM DCFDA-PBS solution for 30 min under standard incubation conditions. Afterwards, the solution was discarded, and the monolayer washed twice with 1 mL of PBS before 3 mL of medium containing 25 µM of pentathiepin was added for 10 min at 37 °C. After removing the solution and washing again with PBS, the cells were detached by using 0.5 mL of a diluted trypsin/EDTA-PBS solution (25%) and harvested with 1 mL of culture medium by carefully rinsing the wells. The cell suspension was transferred to 1.5 mL tubes, centrifuged for 5 min at 500× g, and washed with 1 mL of PBS. After removing the supernatant, each pellet was resuspended in 0.5 mL of PBS for measurement via the MACSquant Analyzer 10 at λEx/Em = 488/530 nm. Relative ROS levels resulting from treatment with pentathiepin were calculated by relating the fluorescence intensity of treated samples to the negative control. For the experiments covering periods of 24 and 48 h, the cells were incubated with the compounds first and stained with DCFDA afterwards. To assess the influence of additional GSH, we included 3 or 30 µM GSH to the medium containing 25 µM of pentathiepin, and the protocol was followed as described.
(A flow cytometer gives signals particle by particle.)

For a further experiment, the system named is A2780. The experiment is described as follows: cell cycle analysis (PI staining). The settings on record: IC90, 48 h. Here is the method: as §1, §2

Take `CCOc1c2c(c3cnc4[nH]c(-c5ccc(OC)cc5)cc4n13)SSSSS2` [Compound 1, 11-Ethoxy-2-(4-methoxyphenyl)-3H-[1,2,3,4,5]pentathiepino[6′,7′:3,4]pyrrolo[1,2-a]pyrrolo[2,3-e]pyrazine]: the “increase of G0/G1-phase cells” value in the experiment on YAPC [1] was “up to 18%”.
On to `CCOc1c2c(c3ccc(C(=O)N4CCOCC4)cn13)SSSSS2` [Compound 3, (6-Ethoxy-[1,2,3,4,5]pentathiepino[6,7-a]indolizin-9-yl)(morpholino)methanone], for which the late apoptotic cells in the experiment on HAP-1.KO.GPx1 (IC90, 24 h) is recorded as 6%; in the experiment on HAP-1 it was “up to 12%”; with Siso, “about 20%”. For the same molecule, the values for the early apoptotic cells in the experiment with HAP-1.KO.GPx1 and with Siso were 34% and “about 20%”, respectively. Further, the “increase of S-phase cells” value in the experiment with PATU-8902 is listed as “up to 14%”.
Consider `CCOc1c2c(c3ccc(C(=O)N(CC)CC)cn13)SSSSS2` [Compound 4, 6-Ethoxy-N,N’-diethyl-[1,2,3,4,5]pentathiepino[6,7-a]indolizine-9-carboxamide], for which the “increase of S-phase cells” value in the experiment with PATU-8902 is recorded as “up to 14%”.
Regarding `CCOc1c2c(c3ccc(C(=O)N4CCN(C(=O)c5ccc(F)cc5)CC4)cn13)SSSSS2` [Compound 5, (6-Ethoxy-[1,2,3,4,5]pentathiepino[6,7-a]indolizin-9-yl)(4-(4-fluorobenzoyl)piperazinyl)methanone], the early apoptotic cells in the experiment with HAP-1.KO.GPx1 stood at 15%. In the experiment with YAPC [2], the “intracellular ROS levels” value is listed as “the only increase was monitored after incubation with 5”.
As to `CCOc1c2c(c3ccc(C(=O)N4CCN(S(=O)(=O)c5ccc(C)cc5)CC4)cn13)SSSSS2` [Compound 6, (6-Ethoxy-[1,2,3,4,5]pentathiepino[6,7-a]indolizin-9-yl)(4-tosylpiperazinyl)methanone], the “increase of G0/G1-phase cells” value with YAPC [1] is “up to 18%”. Besides, in the experiment on A2780, the “relative amount of sub G1-phase cells” value is on record as 30%.
